According to patent publication US11478445B2, “Method for treating acute myeloid leukemia” (Bionomics Limited, priority 2017, dated 2022):
Entries after “also recorded” stand apart in the source; their conditions may differ.

How the values were obtained:
Format in all cases: cell-based, human
[1] = tested on: healthy control (HC) BMMNC samples; test: Viability (Annexin V/7AAD) assay, healthy control samples
Procedure: (§1) Cryopreserved mononuclear cells (MNC from BM or leukapheresis samples) were thawed in a water bath at 37° C. and cell suspension transferred to a 50 mL tube. 20 mL of IMDM media (Sigma, 13390) supplemented with 20% FBS (JRH Biosciences), 50 U/mL DNase I (Sigma), 100 IU/mL penicillin (Sigma), 100 μg/mL streptomycin (Sigma) and 2 mM L-glutamine (Sigma) was added dropwise to the cells while the tube was being vortexed slowly (or mixed by hand). The cells were centrifuged at 400 g for 5 min, supernatant was discarded and the cells were washed once with 20 mL PBS. After the wash, the cells were resuspended in 25 mL IMDM (Sigma, 13390) supplemented with 20% FBS (JRH Biosciences), 100 IU/mL penicillin (Sigma), 100 μg/mL streptomycin (Sigma) and 2 mM L-glutamine (Sigma), and incubated overnight for recovery. The next morning, viability was determined by trypan blue exclusion and samples with viability lower than 85% underwent dead cell removal by density gradient centrifugation as follows: 15 mL of Lymphoprep (AXIS-Shield) was transferred to a 50 mL tube and the cell suspension (25 mL) carefully overlayed (so as not to disturb the interface mixing with the Lymphoprep). The tubes were centrifuged at 800 g for 20 min with acceleration set at 5 (half of the maximum) and no brake. MNC layer (formed in the interface between the media and the Lymphoprep) was transferred with a disposable Pasteur pipet into a 50 mL tube containing 20 mL PBS. […] Viability and cell density were determined by trypan blue exclusion and cells were plated for respective experiments as described in the Results section.
(§2) 2×10^5 cells (200 μL) were harvested in 5 mL tubes and washed 3 times with PBS. […] Results were analysed with FCS Express 4 Flow Research Edition software (De Novo Software). […]

[2] = tested on: primary AML samples (MNC); test: Viability (Annexin V/7AAD) assay, AML samples
Procedure: as §1, with “After the wash, the cells were resuspended in 25 mL IMDM (Sigma, 13390) supplemented with 20% FBS (JRH Biosciences), 100 IU/mL penicillin (Sigma), 100 μg/mL streptomycin (Sigma) and 2 mM L-glutamine (Sigma), and incubated overnight for recovery.” left out, “Lymphoprep).” for “Lymphoprep). The tubes were centrifuged at 800 g for 20 min with acceleration set at 5 (half of the maximum) and no brake. MNC layer (formed in the interface between the media and the Lymphoprep) was transferred with a disposable Pasteur pipet into a 50 mL tube containing 20 mL PBS.”
as §2

[3] = tested on: primary AML samples L-AML6 and L-AML419; test: Blast cell colony assay (Methocult); conditions: 13 days
Procedure: 1.5 mL of Methocult H4034 (STEMCELL Technologies) was aliquoted in 5 mL tubes (one tube/treatment/sample) and supplemented with 20 ng/mL of hIL-6 (Peprotech, 200-06). EX 1 and OXi4503 dilutions were added to respective tubes to the final concentrations 100 nM and 500 nM. DMSO was used as vehicle control. Samples were added to each tube to the final cell density: 2×10^4 cells/well for L-AML6 and L-AML419, 3×10^3 cells/well for AML136 and AML480. The tubes were shaken to mix drugs and cells with the Methocult and incubated at 37° C. for 10 min to remove bubbles. Samples were then plated in 24-well plates, 4 wells/treatment/sample in the 8 wells at the centre of the plate. The wells at the edges were filled with sterile water to avoid drying. Plates were incubated at 37° C. for 13 days before colonies were counted.
Blast cell colony assay. For colony assays AML MNC were plated in methylcellulose with added cytokines (see Methods) and colonies scored after 13 days. […] L-AML419 also formed a small number of colonies in the DMSO-treated wells, with fewer background cells.

[4] = L-AML419, all doses (100 nM and 500 nM)

COc1cc(C(=O)c2c(C)oc3c(O)c(OC)ccc23)cc(OC)c1OC [EX 1, 2-Methyl-7-hydroxy-3-(3,4,5-trimethoxybenzoyl)-6-methoxybenzofuran]
viability (live cells, Annexin V/7AAD) ([1]; 48 h): some reduced viability | viability (live cells, Annexin V/7AAD) ([1]; up to 72 h): viability remained stable | viability (live cells, Annexin V/7AAD) ([2]; 48 h to 72 h): viability decreasing substantially | colony formation ([3]; L-AML6, either dose (100 nM and 500 nM)): no colonies or background cells were observed; also recorded: Colony formation is blocked | colony formation [3, 4]: completely blocked colony and background formation; also recorded: Colony formation is blocked

COc1cc(/C=C\c2ccc(OC)c(OP(=O)(O)O)c2OP(=O)(O)O)cc(OC)c1OC [OXi4503, reference compound]
response to treatment (viability) [1]: did not show a response | response to treatment (viability) [2]: did not show a response | colony formation ([3]; L-AML6, 100 nM): reduced the background cells and also the number of colonies; also recorded: reduces colony formation | colony formation ([3]; L-AML6, 500 nM): completely blocked colony formation; also recorded: completely inhibits colonies | colony formation [3, 4]: completely blocked colony and background formation; also recorded: completely inhibits colonies
